Test results: the RepoRT retention time repository (doi:10.1016/j.foodchem.2021.129757)

Key:
Conditions in all cases: stereoisomer not certain
[1] = RP, Phenomenex Synergi Hydro-RP, 150 × 2 mm, 4 µm, 30 °C, 0.5 mL/min, estimated dead time 0.6 min; A: water + 0.1% formic acid, pH 3; B: acetonitrile + 0.1% formic acid, pH 3; gradient (min/%B) 0/5 1/5 35/45 40/100 45/100
[2] = RP, 50 × 0.5 mm, 2.7 µm, 35 °C, 0.01 mL/min, estimated dead time 0.62 min; A: water + 0.1% formic acid, pH 3; B: acetonitrile + 0.1% formic acid, pH 3; gradient (min/%B) 0/5 12/95 14/95 16/5
[3] = RP, Phenomenex Luna C18, 150 × 4.6 mm, 3 µm, 25 °C, 0.5 mL/min, estimated dead time 3.2 min; A: water + 0.1% formic acid, pH 3; B: acetonitrile + 0.1% formic acid, pH 3; gradient (min/%B) 0/0 30/30 35/40 50/80 52/80 60/0 65/0
[4] = RP, 150 × 2.1 mm, 2.6 µm, 40 °C, 0.35 mL/min, estimated dead time 0.94 min; A: water + 0.1% formic acid, pH 3; B: acetonitrile + 0.1% formic acid, pH 3; gradient (min/%B) 0/0 1/0 12.5/100 14/100 14.2/0 15/0
[5] = RP, Waters Atlantis T3, 100 × 2.1 mm, 3 µm, 40 °C, 0.3 mL/min, estimated dead time 0.73 min; A: water + 0.1% trifluoroacetic acid, pH 2; B: acetonitrile + 0.1% trifluoroacetic acid, pH 2; gradient (min/%B) 0/10 1/10 6/40 7/50 8/50 14/70 16/80 20/10 25/10
[6] = RP, Merck LiChrospher RP-18, 250 × 4 mm, 5 µm, 35 °C, 0.3 mL/min, estimated dead time 6.7 min; A: water + 0.5% formic acid; B: acetonitrile + 0.5% formic acid; gradient (min/%B) 0/5 10/5 30/15 45/20 65/20 95/54 110/63 115/5 135/5
[7] = RP, 150 × 2.1 mm, 2.6 µm, 40 °C, 0.35 mL/min, estimated dead time 0.94 min; A: water + 0.1% formic acid, pH 3; B: acetonitrile + 0.1% formic acid, pH 3; gradient (min/%B) 0/0 1/5 7/45 8.5/80 10.5/80 11/5 12/5
[8] = RP, Phenomenex Synergi Hydro-RP, 250 × 2 mm, 4 µm, 25 °C, 0.2 mL/min, estimated dead time 2.5 min; A: water + 0.1% formic acid, pH 3; B: acetonitrile + 0.1% formic acid, pH 3; gradient (min/%B) 0/0.5 7/0.5 12/12.5 25/16.3 47/35 48/65 50/65 50.1/0.5
[9] = RP, Waters ACQUITY UPLC BEH C18, 100 × 2.1 mm, 1.7 µm, 65 °C, 0.4 mL/min, estimated dead time 0.55 min; A: water + 0.1% formic acid, pH 3; B: 80% acetonitrile + 20% acetone + 0.1% formic acid, pH 3; gradient (min/%B) 0/0 5/100 5.5/0 6/0
[10] = RP, Waters ACQUITY UPLC HSS T3, 100 × 2.1 mm, 50 °C; A: water + 0.1% formic acid, pH 3; B: 30% methanol + 70% acetonitrile + 0.1% formic acid, pH 3; gradient (min/%B) 0/5 1/8 2/15 3/40 4/70 4.5/100 5/100 6.4/100 6.6/5 6.8/5 7/5
[11] = RP, Agilent ZORBAX RRHD Eclipse Plus C18, 50 × 2.1 mm, 1.8 µm, 30 °C, 0.4 mL/min, estimated dead time 0.28 min; A: water + 0.1% formic acid, pH 3; B: acetonitrile + 0.1% formic acid, pH 3; gradient (min/%B) 0/1 5/10 8/25 9.1/99 10/99 12/1
[12] = RP, Agilent ZORBAX RRHD Eclipse Plus C18, 50 × 2.1 mm, 1.8 µm, 30 °C, 0.4 mL/min, estimated dead time 0.28 min; A: water + 0.1% formic acid, pH 3; B: acetonitrile + 0.1% formic acid, pH 3; gradient (min/%B) 0/1 5/10 8/25 9.1/99 10/99 12/99
[13] = RP, Waters ACQUITY UPLC HSS T3, 100 × 2.1 mm, 1.8 µm, 30 °C, 0.4 mL/min, estimated dead time 0.55 min; A: water + 0.1% formic acid, pH 3; B: acetonitrile + 0.1% formic acid, pH 3; gradient (min/%B) 0/0 2/0 15/100 22/100 22.1/0 26/0
[14] = RP, Agilent InfinityLab Poroshell 120 EC-C18, 100 × 3 mm, 2.7 µm, 25 °C, 0.4 mL/min, estimated dead time 1.1 min; A: water + 0.1% formic acid, pH 3; B: acetonitrile + 0.1% formic acid, pH 3; gradient (min/%B) 0/5 10/25 20/40 24/90 25/90 26/5 30/5

Row | Structure (SMILES) | LC retention time [1] | LC retention time [4] | LC retention time [5] | LC retention time [6] | LC retention time [7] | further results
1 | O=c1c(O)c(-c2ccc(OS(=O)(=O)O)c(O)c2)oc2cc(OS(=O)(=O)O)cc(O)c12 [Quercetin disulfate] |  |  |  |  |  | LC retention time [2]: 4.84 min; LC retention time [3]: 31.6 min
2 | O=c1c(O)c(-c2ccc(OC3OC(CO)C(O)C(O)C3O)c(O)c2)oc2cc(O)cc(O)c12 (centres undefined) [Quercetin 4-O-glucoside] |  | 6.09 min | 7.94 min | 78 min |  | 
3 | Oc1cccc(O)c1O [Pyrogallol] |  | 2.06 min | 1.93 min |  | 1.87 min | 
4 | Oc1cc(O)c2c(c1)OC(c1cc(O)c(O)c(O)c1)C(O)C2 (single isomer, unassigned; (-)) [(-)-Epigallocatechin] |  | 4.2 min | 2.05 min |  | 4.07 min | LC retention time [13]: 7.91 min; LC retention time [14]: 4.79 min
5 | CCOC(=O)C=Cc1ccc(O)c(O)c1 [Ethyl Caffeate] |  |  |  | 92.7 min |  | 
6 | CCC=CCC1C(=O)CCC1CC(=O)O (centres undefined) [Jasmonic Acid] |  |  |  | 96.2 min |  | 
7 | CCOC(=O)c1cc(O)c(O)c(O)c1 [Ethyl Gallate] |  |  |  | 53.9 min |  | 
8 | COc1cc(-c2oc3cc(O)cc(O)c3c(=O)c2OC2OC(COC3OC(C)C(O)C(O)C3O)C(O)C(O)C2O)ccc1O (centres undefined) [Isorhamnetin-3-O-rutinoside] |  | 5.8 min |  | 71.3 min | 5.95 min | 

Continued, in another order:

Row | LC retention time [1] | LC retention time [4] | LC retention time [5] | LC retention time [6] | LC retention time [7] | Structure (SMILES) | further results
9 | 42 min |  |  |  |  | CC1CCC2(C(=O)O)CCC3(C)C(=CCC4C5(C)CCC(O)C(C)(C)C5CCC43C)C2C1C (centres undefined) [ursolic acid] | 
10 | 21 min |  |  |  |  | O=c1oc2cc(O)ccc2c2ccc(O)cc12 [urolithin A] | 
11 | 2.13 min |  |  |  |  | O=C(O)c1cc(O)c(O)c(O)c1 [gallic acid] | 
12 | 8.67 min |  |  |  |  | COc1cc(C=O)ccc1O [vanillin] | 
13 |  | 5.13 min | 6.4 min |  | 5.11 min | O=c1c(OC2OC(CO)C(O)C(O)C2O)c(-c2ccc(OC3OC(CO)C(O)C(O)C3O)c(O)c2)oc2cc(O)cc(O)c12 (centres undefined) [Quercetin-3,4'-diglucoside] | LC retention time [8]: 29.1 min
14 |  |  | 7.5 min | 63.4 min |  | O=C(O)/C=C/c1cccc(O)c1 [m-Coumaric acid] | LC retention time [9]: 2.14 min; LC retention time [8]: 33.9 min; LC retention time [10]: 3.53 min; LC retention time [11]: 7.72 min; LC retention time [12]: 7.99 min
15 | 5 min |  |  |  |  | OCCc1ccc(O)c(O)c1 [hydroxytyrosol] | 
16 |  | 5.74 min |  | 58.1 min | 5.66 min | COc1cc(C=O)cc(OC)c1O [Syringaldehyde] | LC retention time [9]: 2.11 min
